Holding throughout (experiment): DTP human tumour cell line panel, 48 h
Test [1] deals with UACC-62 melanoma.
Test [2] relates to SW-620 colon.
Test [3] has as its system ACHN renal.
Test [4] relates to HOP-62 NSCLC.
Test [5] deals with NCI-H23 lung.
The test system of test [6] is U251 CNS.
The test system of test [7] is OVCAR-3 ovarian.
Test [8] deals with HT29 colon.

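Cultured in 96-well plates, cells were exposed to test compound for 48 hours across five concentrations. GI50 marks 50% less growth. At the TGI there is no net growth.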 *1 amine or outer side, *2 acyl side, *3 side chain or, on linkers, in order; H or OH if unused. Where a SMILES comes first, the peptide text is derived from it. Bridges are numbered along the chain shown (N, C = ends). Roman numbers before positions name the chains, in order. [ ]: non-standard residue; d: D form. Actinocin(9to1) = Cc1c2oc3c(C)ccc(C(=O)[*:1])c3nc-2c(C(=O)[*:2])c(N)c1=O; NMeH = CN[CH](Cc1c[nH]cn1)C(=O)O; Sar = CNCC(=O)O

In general, TGI refers to the concentration giving total growth inhibition. A high value points to less potent growth arrest. Consider `Cc1c2oc3c(C)ccc(C(=O)NC4C(=O)NC(C(C)C)C(=O)N5CCCC5C(=O)N(C)CC(=O)N(C)C(Cc5cnc[nH]5)C(=O)OC4C)c3nc-2c(C(=O)NC2C(=O)NC(C(C)C)C(=O)N3CCCC3C(=O)N(C)CC(=O)N(C)C(Cc3cnc[nH]3)C(=O)OC2C)c(N)c1=O` (configuration not stated) (I: TVP[Sar][NMeH] / II: TVP[Sar][NMeH]; ester I:1-I:C, II:1-II:C; linker I:N-II:N via Actinocin(9to1); configuration not given here), for which the TGI in test [1], in test [2], in test [3], in test [4], in test [5] and in test [6] was over 100 µM throughout. Also, the TGI in test [7] and in test [8] was over 100 µM throughout.
In general, GI50 refers to the concentration that inhibits growth by half. As for `COc1ccc([C@H](CC(=O)O)N2CCN(CCCc3ccc4c(n3)NCCC4)C2=O)cn1`, the GI50 in test [1] was over 100 µM; in test [3] it was over 52 µM; in test [4], 0.414 µM; in test [5] it was 0.892 µM; in test [6], 0.934 µM; in test [7] it was over 100 µM. For the same compound, the GI50 in test [8] was 0.794 µM. For the same compound, the TGI in test [1] was over 100 µM; in test [2] it was over 100 µM; in test [3], over 100 µM; in test [4] it was over 100 µM; in test [5], 4.07 µM; in test [6], over 100 µM. Moreover, the TGI in test [7] and in test [8] was over 100 µM in each case.
As for `CC1=CC2C(C(O)CC3(C)C2CC(C)C32OCOC23COCO3)C2(C)C/C(=C/O)C(=O)C=C12` (configuration not stated), the GI50 in test [1] was 1.76 µM; in test [2] it was 1.65 µM; in test [3], 1.85 µM; in test [4] it was 1.99 µM; in test [5] it was 2 µM; in test [6] it was 1.66 µM. Further, the GI50 in test [7] is 2.05 µM; in test [8], 1.79 µM. The TGI in test [1] was 3.83 µM; in test [2] it was 3.32 µM; in test [3] it was 3.45 µM; in test [4], 3.52 µM; in test [5], 3.83 µM; in test [6], 3.27 µM. Further, the TGI in test [7] came to 3.59 µM; in test [8] it was 5.01 µM.
Regarding `C=CO/N=[N+](\[O-])N(CC)CC`, the concentration for total growth inhibition (TGI) in test [1], in test [2], in test [3], in test [4], in test [5] and in test [6] was over 100 µM in each case. The TGI in test [7] and in test [8] was over 100 µM in each case.
As for `C(/C=N/NC1=NCCCCN1)=N\NC1=NCCCCN1`, the TGI in test [1], in test [2], in test [3], in test [4], in test [5] and in test [6] was over 100 µM in each case. The total growth inhibition concentration (TGI) in test [7] and in test [8] was over 100 µM each time.
Consider `O=[N+]([O-])c1cccc(/C=N/NC2=CS(=O)(=O)C=C2)c1`, for which the TGI in test [1], in test [2], in test [3], in test [4], in test [5] and in test [6] was over 100 µM in each case. Also, the TGI in test [7] and in test [8] was over 100 µM in each case.
With `O=C1CCc2c(sc3[nH]c(=S)n(-c4cc(C(F)(F)F)cc(C(F)(F)F)c4)c(=O)c23)C1`, the GI50 was 0.294 µM in test [1]; 0.376 µM in test [2]; 0.344 µM in test [3]; 0.553 µM in test [4]; 0.346 µM in test [5]; 0.364 µM in test [6]. Also, the GI50 in test [7] was 0.358 µM; in test [8] it was 0.939 µM. For the same compound, the TGI in test [1] came to 1.23 µM; in test [2] it was 15.7 µM; in test [3], 1.31 µM; in test [4], 11.8 µM; in test [5], 2.24 µM; in test [6] it was 1.97 µM. For the same compound, the TGI in test [7] was 1.49 µM; in test [8], over 33.6 µM.
With `Oc1c(C(Nc2ccccc2Br)c2ccccc2)ccc2cccnc12` (configuration not stated), the GI50 in test [1] was 1.39 µM; in test [2] it was 2.63 µM; in test [3], 2.04 µM; in test [4] it was 2.28 µM; in test [5], 3.96 µM; in test [6], 0.674 µM. The GI50 in test [7] was 5.37 µM; in test [8] it was 3.85 µM. Also, the TGI in test [1] was 7.33 µM; in test [2] it was 25.3 µM; in test [3], over 100 µM; in test [4] it was 19.7 µM; in test [5] it was 26.9 µM; in test [6], 13.4 µM. Also, the concentration for total growth inhibition (TGI) was determined as 23.9 µM in test [7] and 84.3 µM in test [8].
With `C#C[C@]1(O)CC[C@H]2[C@@H]3CC=C4c5sc(Nc6cc(F)ccc6F)nc5CC[C@]4(C)[C@H]3CC[C@@]21C`, the GI50 in test [1] was 1.74 µM; in test [2], 1.78 µM; in test [3] it was 1.44 µM; in test [4], 1.77 µM; in test [5] it was 1.78 µM; in test [6], 0.813 µM. The GI50 in test [7] was 1.62 µM; in test [8] it was 2.24 µM. Further, the TGI was found to be 3.75 µM in test [1]; 4.38 µM in test [2]; 2.9 µM in test [3]; 5.7 µM in test [4]; 4.38 µM in test [5]; 2.43 µM in test [6]. For the same compound, the TGI turned out to be 3.16 µM in test [7] and 8.5 µM in test [8].
On to `COc1ccc2c(c1)[n+](=O)c(C(=O)c1cccs1)c(C(F)(F)F)n2[O-]`, for which the GI50 was 5.76 µM in test [1]; 8.43 µM in test [2]; 8.64 µM in test [3]; 12.1 µM in test [4]; 2.88 µM in test [5]; 10.3 µM in test [6]. Further, the GI50 in test [7] is 2.09 µM; in test [8], 8.65 µM. The TGI in test [1] was 19.5 µM; in test [2] it was over 50 µM; in test [3], over 50 µM; in test [4] it was over 50 µM; in test [5], 25.8 µM; in test [6], over 50 µM. For the same compound, the TGI in test [7] is 11.3 µM; in test [8], over 50 µM.

These data come from PubChem BioAssay (NCI).
